Results on 2 compounds are retold here after article PMC4522399 (Journal of pharmaceutical sciences, 2015).

The target in one series is T1, human NTCP (Homo sapiens, UniProt Q14973).
T1 sequence (Q14973 1-349): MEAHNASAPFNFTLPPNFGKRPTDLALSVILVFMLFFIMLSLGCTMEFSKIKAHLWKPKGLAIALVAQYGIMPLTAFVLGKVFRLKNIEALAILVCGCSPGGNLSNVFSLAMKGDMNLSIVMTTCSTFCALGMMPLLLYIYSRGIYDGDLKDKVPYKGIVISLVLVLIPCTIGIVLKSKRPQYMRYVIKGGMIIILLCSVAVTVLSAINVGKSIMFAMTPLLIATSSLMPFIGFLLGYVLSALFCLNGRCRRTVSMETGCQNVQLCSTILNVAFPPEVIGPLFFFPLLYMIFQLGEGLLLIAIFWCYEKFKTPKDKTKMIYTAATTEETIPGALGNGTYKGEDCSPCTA
The settings on record: native substrate, comparison value; cited from earlier work.

A short description of another series: in vivo. The settings on record: male, Balb/c, mouse, iv, 0.08 mmol/kg.

`C[C@H](CCC(=O)NCCS(=O)(=O)O)[C@H]1CC[C@H]2[C@@H]3[C@H](O)C[C@@H]4C[C@H](O)CC[C@]4(C)[C@H]3C[C@H](O)[C@]12C` [taurocholate]: the Kt at human NTCP is 22.7 µM.

The term Tmax denotes the time at which the peak concentration occurs. With `NC(=O)c1ncn([C@@H]2O[C@H](CO)[C@@H](O)[C@H]2O)n1` [ribavirin, Ribavirin], the Tmax in “in vivo” is 30 min.
